Assay: MALDI-TOF screening of Ni^2+ dependent hydrolysis in a combinatorial peptide library
Type: physicochemical
Conditions: CH3CO-Gly-Ala-Ser-X-His-Z-Lys-Phe-Leu-NH2 library, Ni^2+ 2 mM, pH 8.2, 10 mM Tris, score=24/tm
Description: The sequence CH3CO-Gly-Ala-Ser/Thr-X-His-Z-Lys-Phe-Leu-NH2 was designed so that the fixed R1 and R2 sequences, CH3CO-Gly-Ala, and Lys-Phe-Leu-NH2, respectively, allowed optimal detection by MALDI-TOF mass spectrometry of substrates as well as expected products, Ser/Thr-X-His-Z-Lys-Phe-Leu-NH2 and assured separation between the clusters of signals for substrates and products in sublibraries (see below).
Residues in position X included all amino acids commonly present in proteins, except for Asp, Glu, and Cys. The former two contain carboxylates in their side chains, which may bind Ni^2+ in a way which would quench or slow down the hydrolysis reaction. The Cys residue may do the same, and also may engage in side reactions with Ni^2+ ions, including redox processes (for example see Bal and Kasprzak, Toxicol. Lett. 2002, 127, 55-62). Only the Cys residue was eliminated from position Z, for the same reasons.
The synthesis of the library was accomplished on a RINK amide resin (Novabiochem) on a 800 mg scale, according to a typical Fmoc protocol (Fields, Meth. Enzymol. Vol. 289). The resin-attached Leu-Phe-Lys peptide was synthesised first and coupled with the isokinetic mixture of 19 amino acids selected for position Z, and then with the H is residue. The resin carrying the library of pentapeptides was divided into Ser and Thr halves at this stage, and each of these halves into 17 portions, which were coupled with individual amino acids selected for position X. The coupling with Ser or Thr as appropriate, additions of Ala and Gly residues, acetylation of Gly, deprotection and cleavage from the resin were accomplished subsequently. Each of the resulting 34 samples of sublibraries randomized at position X was separated into two portions, one for the reaction at 37° C. and another for the reaction at 45° C. The hydrolysis reactions were accomplished in 10 mM Tris buffers at pH 8.2. The total concentrations of peptide mixtures and Ni^2+ ions were 1 mM and 2 mM, respectively. The pH for the reaction was chosen as selective for highly reactive sequences.
The detection of reaction products was accomplished with the use of a MALDI-TOF mass spectrometer (Micromass). The aliquots were removed from reaction mixtures and measured by MS at 2, 4, 6, and 8 hours of incubation. The progress of reaction was evaluated by visual detection in mass spectra of appearance of signals corresponding to expected products of hydrolysis, Ser/Thr-X-His-Z-Lys-Phe-Leu-NH2, at given measurement times, tm. […] Also the decrease of signals of substrates was controlled in these cases.
Residues X and Z were then sorted according to various molecular parameters, describing their physical properties (Carugo, In Silico Biol. 2003, 3, 0035). […] The Ser library provided a higher number of reactive peptides than the Thr library. Following the additivity of effects, the scores were also summed up in lines and columns of Table 1A-D, thereby creating final rankings for preferred substitutions in positions X and Z.

Substance	hydrolysis score from MALDI-TOF screening (37° C.)	hydrolysis score from MALDI-TOF screening (45° C.)
Ac-GASAHDKFL-NH2 [SAHD]	0 (a score of 0 if no trace of the product of hydrolysis was seen after 8 hours of incubation)	0 (a score of 0 if no trace of the product of hydrolysis was seen after 8 hours of incubation)
Ac-GASAHFKFL-NH2 [SAHF]	0 (a score of 0 if no trace of the product of hydrolysis was seen after 8 hours of incubation)	3 (a score of 3 for detection at 8 hours)
Ac-GASAHGKFL-NH2 [SAHG]	0 (a score of 0 if no trace of the product of hydrolysis was seen after 8 hours of incubation)	0 (a score of 0 if no trace of the product of hydrolysis was seen after 8 hours of incubation)
Ac-GASAHIKFL-NH2 [SAHI]	0 (a score of 0 if no trace of the product of hydrolysis was seen after 8 hours of incubation)	4 (a score of 4 for detection at 6 hours)
Ac-GASAHKKFL-NH2 [SAHK]	3 (a score of 3 for detection at 8 hours)	6 (a score of 6 for detection at 4 hours)
Ac-GASAHLKFL-NH2 [SAHL]	0 (a score of 0 if no trace of the product of hydrolysis was seen after 8 hours of incubation)	4 (a score of 4 for detection at 6 hours)
Ac-GASAHMKFL-NH2 [SAHM]	0 (a score of 0 if no trace of the product of hydrolysis was seen after 8 hours of incubation)	0 (a score of 0 if no trace of the product of hydrolysis was seen after 8 hours of incubation)
Ac-GASAHNKFL-NH2 [SAHN]	0 (a score of 0 if no trace of the product of hydrolysis was seen after 8 hours of incubation)	0 (a score of 0 if no trace of the product of hydrolysis was seen after 8 hours of incubation)
Ac-GASAHQKFL-NH2 [SAHQ]	0 (a score of 0 if no trace of the product of hydrolysis was seen after 8 hours of incubation)	0 (a score of 0 if no trace of the product of hydrolysis was seen after 8 hours of incubation)
Ac-GASAHRKFL-NH2 [SAHR]	3 (a score of 3 for detection at 8 hours)	6 (a score of 6 for detection at 4 hours)
Ac-GASAHSKFL-NH2 [SAHS]	0 (a score of 0 if no trace of the product of hydrolysis was seen after 8 hours of incubation)	0 (a score of 0 if no trace of the product of hydrolysis was seen after 8 hours of incubation)
Ac-GASAHTKFL-NH2 [SAHT]	0 (a score of 0 if no trace of the product of hydrolysis was seen after 8 hours of incubation)	0 (a score of 0 if no trace of the product of hydrolysis was seen after 8 hours of incubation)
Ac-GASAHVKFL-NH2 [SAHV]	0 (a score of 0 if no trace of the product of hydrolysis was seen after 8 hours of incubation)	3 (a score of 3 for detection at 8 hours)
Ac-GASAHWKFL-NH2 [SAHW]	4 (a score of 4 for detection at 6 hours)	6 (a score of 6 for detection at 4 hours)
Ac-GASAHYKFL-NH2 [SAHY]	0 (a score of 0 if no trace of the product of hydrolysis was seen after 8 hours of incubation)	3 (a score of 3 for detection at 8 hours)
Ac-GASFHAKFL-NH2 [SFHA]	0 (a score of 0 if no trace of the product of hydrolysis was seen after 8 hours of incubation)	3 (a score of 3 for detection at 8 hours)

Substance	hydrolysis score from MALDI-TOF screening (37° C.)	hydrolysis score from MALDI-TOF screening (45° C.)
Ac-GASFHDKFL-NH2 [SFHD]	0 (a score of 0 if no trace of the product of hydrolysis was seen after 8 hours of incubation)	0 (a score of 0 if no trace of the product of hydrolysis was seen after 8 hours of incubation)
Ac-GASFHEKFL-NH2 [SFHE]	0 (a score of 0 if no trace of the product of hydrolysis was seen after 8 hours of incubation)	3 (a score of 3 for detection at 8 hours)
Ac-GASFHFKFL-NH2 [SFHF]	3 (a score of 3 for detection at 8 hours)	6 (a score of 6 for detection at 4 hours)
Ac-GASFHGKFL-NH2 [SFHG]	0 (a score of 0 if no trace of the product of hydrolysis was seen after 8 hours of incubation)	0 (a score of 0 if no trace of the product of hydrolysis was seen after 8 hours of incubation)
Ac-GASFHIKFL-NH2 [SFHI]	4 (a score of 4 for detection at 6 hours)	6 (a score of 6 for detection at 4 hours)
Ac-GASFHKKFL-NH2 [SFHK]	4 (a score of 4 for detection at 6 hours)	6 (a score of 6 for detection at 4 hours)
Ac-GASFHLKFL-NH2 [SFHL]	4 (a score of 4 for detection at 6 hours)	6 (a score of 6 for detection at 4 hours)
Ac-GASFHMKFL-NH2 [SFHM]	0 (a score of 0 if no trace of the product of hydrolysis was seen after 8 hours of incubation)	3 (a score of 3 for detection at 8 hours)
Ac-GASFHNKFL-NH2 [SFHN]	0 (a score of 0 if no trace of the product of hydrolysis was seen after 8 hours of incubation)	0 (a score of 0 if no trace of the product of hydrolysis was seen after 8 hours of incubation)
Ac-GASFHPKFL-NH2 [SFHP]	0 (a score of 0 if no trace of the product of hydrolysis was seen after 8 hours of incubation)	0 (a score of 0 if no trace of the product of hydrolysis was seen after 8 hours of incubation)
Ac-GASFHQKFL-NH2 [SFHQ]	0 (a score of 0 if no trace of the product of hydrolysis was seen after 8 hours of incubation)	0 (a score of 0 if no trace of the product of hydrolysis was seen after 8 hours of incubation)
Ac-GASFHRKFL-NH2 [SFHR]	4 (a score of 4 for detection at 6 hours)	6 (a score of 6 for detection at 4 hours)
Ac-GASFHSKFL-NH2 [SFHS]	0 (a score of 0 if no trace of the product of hydrolysis was seen after 8 hours of incubation)	0 (a score of 0 if no trace of the product of hydrolysis was seen after 8 hours of incubation)
Ac-GASFHTKFL-NH2 [SFHT]	0 (a score of 0 if no trace of the product of hydrolysis was seen after 8 hours of incubation)	0 (a score of 0 if no trace of the product of hydrolysis was seen after 8 hours of incubation)
Ac-GASFHVKFL-NH2 [SFHV]	3 (a score of 3 for detection at 8 hours)	6 (a score of 6 for detection at 4 hours)

— patent US8969516B2, “Method of hydrolysis of peptide bond” (priority 2006, dated 2015)
